Laboratory results taken from patent US9259406B2, “Antitumor combinations containing antibodies recognizing specifically CD38 and melphalan” (SANOFI, priority 2008, dated 2016).
Where “and” joins values, the source holds several entries; their conditions need not be identical. Equal entries are not always repeated. Entries after “also recorded” stand apart in the source; their conditions may differ. Where two headings read alike, the source gives them in different places.

What was measured:
[1] = test system: human multiple myeloma RPMI-8226
[2] = test system: human multiple myeloma LP1
murine CD38 = molecular target: T1, murine CD38 (Mus musculus, UniProt P56528); assay: cross-reactivity of the antibody with murine CD38; format: binding
T1 sequence (P56528 1-304): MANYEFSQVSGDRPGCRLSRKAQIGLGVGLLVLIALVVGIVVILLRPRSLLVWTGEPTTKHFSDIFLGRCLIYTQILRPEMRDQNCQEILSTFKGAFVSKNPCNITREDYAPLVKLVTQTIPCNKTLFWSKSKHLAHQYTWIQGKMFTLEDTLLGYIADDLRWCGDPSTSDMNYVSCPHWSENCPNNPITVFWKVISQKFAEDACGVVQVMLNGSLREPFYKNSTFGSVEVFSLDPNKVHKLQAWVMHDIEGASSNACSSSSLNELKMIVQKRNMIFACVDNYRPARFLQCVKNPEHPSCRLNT

[3] = hu38SB19 IV 40.0 mg/kg/inj (total 160.0), days 12, 15, 18, 21
[4] = melphalan IV 3.8 mg/kg/inj (total 15.2), days 16, 19, 22, 25
[5] = melphalan IV 6.2 mg/kg/inj (total 24.8), days 16, 19, 22, 25
[6] = melphalan IV 10.0 mg/kg/inj (total 40.0), days 16, 19, 22, 25
[7] = melphalan alone IV, total injected dose 40 mg/kg
[8] = melphalan IV 3.8 mg/kg/inj (total 15.2), days 12, 15, 18, 21
[9] = melphalan IV 6.2 mg/kg/inj (total 24.8), days 12, 15, 18, 21
[10] = melphalan IV 10.0 mg/kg/inj (total 40.0), days 12, 15, 18, 21
[11] = melphalan IV 16.1 mg/kg/inj (total 48.3), treatments stopped on day 18

hu38SB19: humanized version of anti-CD38 monoclonal antibody 38SB19; heavy chain CDRs SEQ ID NOS: 13, 81, 15, light chain CDRs SEQ ID NOS: 16, 17, 18
tolerability ([1]; mouse, in vivo, 40 mg/kg): well tolerated
% BWC at nadir (day) ([1]; mouse, in vivo, iv, 40 mg/kg): +5.3%
Comments ([1]; mouse, in vivo, iv, 40 mg/kg): not active; also recorded: HDT-inactive
Drug death ([1]; mouse, in vivo, iv, 40 mg/kg): 0/5
T-C in days (1000 mg) ([1]; mouse, in vivo, iv, 40 mg/kg): 5.2 days
log10 cell kill ([1]; mouse, in vivo, iv, 40 mg/kg): 0.5
T-C in days (1000 mg) [2, 3]: 1.1 days
log10 cell kill gross [2, 3]: 0.2
Comments ([2]; hu38SB19 IV 40.0 mg/kg/inj (total 160.0), days 12, 15, 18, 21, 40 mg/kg): not active; also recorded: HDT-inactive
tolerability ([2]; mouse, in vivo, 40 mg/kg): well tolerated
% BWC at nadir (day) ([2]; mouse, in vivo, iv, 40 mg/kg): +15.9%
cross-reactivity with murine CD38 (murine CD38): lack of cross-reactivity

N[C@@H](Cc1ccc(N(CCCl)CCCl)cc1)C(=O)O [melphalan]
Comments [1, 4]: Moderately active
Drug death [1, 4]: 0/5
T-C in days (1000 mg) [1, 4]: 8.5 days
log10 cell kill [1, 4]: 0.8
% BWC at nadir (day) ([1]; melphalan IV 3.8 mg/kg/inj (total 15.2), days 16, 19, 22, 25, nadir day 17): −1.2%
Comments [1, 5]: Active
Drug death [1, 5]: 0/5
T-C in days (1000 mg) [1, 5]: 9.5 days
log10 cell kill [1, 5]: 0.9
% BWC at nadir (day) ([1]; melphalan IV 6.2 mg/kg/inj (total 24.8), days 16, 19, 22, 25, nadir day 32): −3.5%
Drug death [1, 6]: 0/5
T-C in days (1000 mg) [1, 6]: 20.0 days
log10 cell kill [1, 6]: 1.9
Comments ([1]; melphalan IV 10.0 mg/kg/inj (total 40.0), days 16, 19, 22, 25, 10 mg/kg): HNTD, active
% BWC at nadir (day) ([1]; melphalan IV 10.0 mg/kg/inj (total 40.0), days 16, 19, 22, 25, nadir day 26): −12.2%
Comments ([1]; melphalan IV 16.1 mg/kg/inj (total 32.2), days 16, 19): Toxic
Drug death ([1]; melphalan IV 16.1 mg/kg/inj (total 32.2), days 16, 19, 16.1 mg/kg): 3 and 3/5
% BWC at nadir (day) ([1]; melphalan IV 16.1 mg/kg/inj (total 32.2), days 16, 19, nadir day 26): −33.4%
highest nontoxic dose (HNTD) [1, 7]: 10 mg/kg/inj
Comments [2, 8]: Moderately active
T-C in days (1000 mg) [2, 8]: 4.1 days
log10 cell kill gross [2, 8]: 0.8
% BWC at nadir (day) ([2]; melphalan IV 3.8 mg/kg/inj (total 15.2), days 12, 15, 18, 21, nadir day 22): +7.0%
Comments [2, 9]: Highly active
T-C in days (1000 mg) [2, 9]: 17.4 days
log10 cell kill gross [2, 9]: 3.5
% BWC at nadir (day) ([2]; melphalan IV 6.2 mg/kg/inj (total 24.8), days 12, 15, 18, 21, nadir day 24): −3.0%
T-C in days (1000 mg) [2, 10]: 46.5 days
log10 cell kill gross [2, 10]: 9.3
% BWC at nadir (day) ([2]; melphalan IV 10.0 mg/kg/inj (total 40.0), days 12, 15, 18, 21, nadir day 24): −14.6%
Comments [2, 11]: Toxic
drug-related deaths [2, 11]: 4/5
% BWC at nadir (day) ([2]; melphalan IV 16.1 mg/kg/inj (total 48.3), treatments stopped on day 18, nadir day 22): −33.6%
body weight loss at nadir ([2]; melphalan alone 16.1 mg/kg/injection, nadir on day 22): 33.6%
HNTD [2, 7]: 10 mg/kg/inj
